Here are results for 2 compounds from patent publication US10111431B2, “Application of biofilm formation inhibiting compounds enhances control of citrus canker” (priority 2013, dated 2018).

In test [1] the test system is Xac306 biofilm formation. The test is described as follows: Static biofilm formation assay in 96-well polystyrene plates with crystal violet staining. Conditions: for dose dependence of Xac306 biofilm decrease: 0 to 20 mM for D-leucine and D-serine, 0 to 150 μg/mL for IAN; for decrease in biofilm mass: 10 mM for D-leucine and 100 μg/mL for IAN (below MIC); for effect on planktonic cell density: sub-MIC: 10 mM D-leucine, 100 μg/mL IAN, data not shown. It is filed as cell-based, Xanthomonas citri subsp. citri. The method, then:
A static biofilm formation assay in 96-well polystyrene plates coupled with CV staining was performed as previously reported with modifications (Li and Wang, 2011). Briefly, a 96-well polystyrene plate (Nunclon surface, Nuncbrand, Denmark) was prepared with 170 μL NB plus 1.0% glucose per well. Aliquots of 20 μL each of the different concentrations of the tested compound were pipetted into eight wells containing 170 μL of NB plus 1.0% glucose. To each of these wells was added 10 μL of the standardized overnight Xac 306 culture (OD600=1.0). Control wells contained NB plus 1.0% glucose and SDW or 0.1% DMSO as a sterility control, or standardized overnight Xac 306 culture as a growth control. The plate was covered by a MicroWell lid (Nunclon), sealed with parafilm to prevent evaporation and incubated at 28° C. for 48 h without shaking. After incubation, the planktonic growth was measured at OD600. To quantify the amount of biofilms formed on the surfaces of the wells, the culture was removed from the wells. After drying, the wells were washed twice with 200 μl of SDW for 5 min, allowed to dry then 200 μl of 0.1% CV added. After 30 minutes, the CV was removed. The wells were washed with excess SDW to remove unbound CV and air dried in an inverted position for 2 h. Afterward, 200 μl of 95% ethanol was added to the wells and incubated for 30 min at room temperature to elute bound CV. The eluted CV was 2-fold diluted in double distilled water and the absorbance at 590 nm was measured. Each data point was averaged from eight replicate wells.

Test [2] has as its system Xac306 biofilm formation. The test is described as follows: Biofilm formation on polystyrene surface and in glass tubes at sub-MIC. It is filed as cell-based, Xanthomonas citri subsp. citri. Particulars: Xanthomonas citri, read-out: level of biofilm formation, % of control. The procedure: A static biofilm formation assay in 96-well polystyrene plates coupled with CV staining was performed as previously reported with modifications (Li and Wang, 2011). Briefly, a 96-well polystyrene plate (Nunclon surface, Nuncbrand, Denmark) was prepared with 170 μL NB plus 1.0% glucose per well. Aliquots of 20 μL each of the different concentrations of the tested compound were pipetted into eight wells containing 170 μL of NB plus 1.0% glucose. To each of these wells was added 10 μL of the standardized overnight Xac 306 culture (OD600=1.0). Control wells contained NB plus 1.0% glucose and SDW or 0.1% DMSO as a sterility control, or standardized overnight Xac 306 culture as a growth control. […] After incubation, the planktonic growth was measured at OD600. To quantify the amount of biofilms formed on the surfaces of the wells, the culture was removed from the wells. […] The eluted CV was 2-fold diluted in double distilled water and the absorbance at 590 nm was measured. […]
To gain further evidence of the effect of selected compounds on biofilm formation, biofilm formation in glass tubes and on leaf surfaces was examined as described previously (Li and Wang, 2012). […] The stain remaining in cells on glass tubes was dissolved in 95% ethanol and quantified by measuring the optical density at 590 nm. […]

Test [3] has as its system Xac strain 306 biofilm formation. The test is described as follows: Biofilm formation on citrus abaxial leaf surfaces. It is filed as cell-based, Xanthomonas citri subsp. citri. Conditions: 10 mM D-leucine, 100 μg/mL IAN; 28° C., 24 h, crystal violet. The method, then:
To gain further evidence of the effect of selected compounds on biofilm formation, biofilm formation in glass tubes and on leaf surfaces was examined as described previously (Li and Wang, 2012). Briefly, the standardized overnight culture of Xac 306 (OD600=1.0) were diluted 1:10 in fresh NB containing 1.0% glucose and the selected compound. For biofilm formation assay in glass tubes (Fischer Scientific, Pittsburgh, Pa.), 1 ml of the diluted bacterial suspension was transferred into each sterilized borosilicate glass tube and incubated at 28° C. without shaking for 48 h. The planktonic growth was then discarded and the tubes were gently washed three times with SDW. The biofilm formed on the tubes was visualized by staining with 0.1% CV. The stain remaining in cells on glass tubes was dissolved in 95% ethanol and quantified by measuring the optical density at 590 nm. For biofilm formation assay on leaf surfaces, 20 μl of the diluted bacterial suspension was dropped onto the abaxial surface of citrus leaves. The leaves were kept in a humidified chamber at 28° C. for 24 h without shaking. The biofilm formed on the leaf surfaces was visualized by staining with 0.1% CV. The biofilm assays were repeated three times with four replicates each time.

The test system of test [4] is X. citri subsp. citri strain 306. The test is described as follows: Determination of minimum inhibitory concentrations (MICs) in NB medium, 96-well plate. It is filed as cell-based, Xanthomonas citri subsp. citri. Conditions: Xanthomonas citri, 48 h. The method, then:
Xac strain 306 was grown in NB at 28° C. with shaking at 200 rpm for 7 h. The cultures were standardized to an OD600 of 0.03 (5×10^7 colony forming unit (CFU)/mL) in NB and then aliquoted into wells of a 96-well plate, 190 μL per well. The initial test concentrations of the compounds were diluted (1:20) in the culture (10 μl of compound in 190 μl of culture) and incubated at 28° C. under stationary conditions. The cultures were monitored at 24 and 48 h at OD600, and the lowest concentration resulting in no growth after 48 h compared to the control samples was defined as the MIC for Xac strain 306. All determinations were conducted in eight replicate wells and repeated three times.

Test [5] relates to Xac 306 on grapefruit leaves. In words: Plant test in greenhouse, spray inoculation of grapefruit leaves. It is filed as in vivo, Xanthomonas citri subsp. citri. Conditions: for level of canker lesions on sprayed leaves / canker symptom development on grapefruit leaves (lesion numbers): D-leucine 10 mM, IAN 100 μg/mL; for level of canker lesions on sprayed leaves: CuSO4 100 μg/mL; for canker symptom development on grapefruit leaves: applied after (6 h) the pathogen inoculation; for canker symptom development on grapefruit leaves (lesion numbers): applied along with or prior to (6 h) pathogen inoculation; for log reduction in the number of CFU compared to untreated control: grapefruit leaves, 7 to 28 days after inoculation. The procedure: The effect of selected biofilm inhibitors on Xac infection/virulence-was investigated using 20-week-old potted grapefruit (Citrus paradise cv. Duncan grapefruit) plants in a quarantine greenhouse at the Citrus Research and Education Center, Lake Alfred, Fla. Copper (CuSO4, 100 μg/mL), D-leucine (10 mM), IAN (100 μg/mL) and a combination of these compounds were individually prepared in 100 ml of SDW. Bacterial inoculum was prepared by growing Xac 306 on NA plates at 28° C. for 48 h, suspending in SDW, adjusting concentration to approximately OD600=0.3 (5×10^8 CFU/mL). The inoculation was performed by a spray method as described previously (Li and Wang, 2012) with modifications. Briefly, the abaxial surfaces of fully expanded, immature leaves of each plant were sprayed with the following treatments: SDW, Xac 306, and Xac 306 combined with CuSO4 (100 μg/mL), D-leucine (10 mM), IAN (100 μg/mL), or a combination of these compounds. Silwett-L77 (silicone-polyether copolymer, Fisher) was added to each treatment at a 0.03% (V/V) final concentration. After inoculation, the plants were covered with plastic bags for 24 h to maintain a high (>90%) relative humidity and then kept in a greenhouse (approximately 60% relative humidity) for symptom development. All inoculations included a minimum of three immature leaves at a similar developmental stage from each plant, and each treatment comprised four plants. The experiments were repeated three times independently. SDW was applied as a negative control, and Xac306 mixed with SDW as positive control. To determine whether the timing of application of biofilm inhibitors in relation to Xac306 affected canker symptom suppression, the biofilm inhibitors were inoculated on leaves 6 h prior to or after inoculation with Xac306.
For bacterial population assays, the leaves of grapefruit plants were inoculated as described above. Two leaf discs randomly selected from each of three inoculated leaves were cut with a cork borer (0.8 cm in diameter) and then ground in 1 mL of SDW. The suspensions were serially diluted and plated on NA plates containing rifamycin. After incubation at 28° C. for 48 h, bacterial colonies were counted and the number of CFU per square centimeter of leaf tissue was calculated. The assays were repeated three times independently.

Read-outs that look alike come from different tables or passages of the source.

As to `CC(C)C[C@@H](N)C(=O)O` [D-leucine], in test [1], the “dose dependence of Xac306 biofilm decrease” value is given as “decreased Xac306 biofilm in a dose-dependent manner”, the “decrease in biofilm mass” value was 58% and the “effect on planktonic cell density” value is recorded as “does not significantly decrease planktonic cell density”. The activity at 10000 µM in test [2] was 50%. The “biofilm formation on citrus leaf surfaces” value in test [3] is reported as “declined biofilm formation”. For the same compound, the MIC – broadly, the lowest concentration found to suppress growth – in test [4] was found to be 16 mM. For the same compound, in test [5], the “level of canker lesions on sprayed leaves” value is listed as “less than that sprayed with the pathogen alone”, the “canker symptom development on grapefruit leaves” value was “did not affect the development of canker symptoms”, the “canker symptom development on grapefruit leaves (lesion numbers)” value is on record as “able to reduce canker symptom development” and the “log reduction in the number of CFU compared to untreated control” value was about 1.0 log.

As for `N#CCc1c[nH]c2ccccc12` [IAN, 3-indolylacetonitrile], in test [1], the “dose dependence of Xac306 biofilm decrease” value is “decreased Xac306 biofilm in a dose-dependent manner”, the “decrease in biofilm mass” value stood at 65% and the “effect on planktonic cell density” value was “does not significantly decrease planktonic cell density”. Moreover, the activity at 100 µg/mL in test [2] (polystyrene surface and glass tubes, 10 mM D-leucine, 100 μg/mL IAN) is 60%. For the same compound, the “biofilm formation on citrus leaf surfaces” value in test [3] is listed as “declined biofilm formation”. In addition, the MIC in test [4] (compound alone, NB medium, 28° C., stationary, OD600, read-out: MIC) came out at 200 µg/mL. In addition, in test [5], the “level of canker lesions on sprayed leaves” value is on record as “less than that sprayed with the pathogen alone”, the “canker symptom development on grapefruit leaves” value is “did not affect the development of canker symptoms”, the “canker symptom development on grapefruit leaves (lesion numbers)” value was “able to reduce canker symptom development” and the “log reduction in the number of CFU compared to untreated control” value is recorded as about 1.0 log.
